Several values for one entry are separate records, joined by “and”; a condition that tells them apart may be missing. Equal entries are not always repeated. Where two headings read alike, the source gives them in different places.
What was measured:
[1] = system: FES^S700C HL-60 neutrophils; test: Phagocytosis assay with GFP-expressing E. coli; type: cell-based, human; conditions: for Phagocytic index / GFP-positive cells (%) / Mean GFP intensity (RFU): listed as WEL028; for GFP-positive cells (%): Sup. Fig. 15a; for Mean GFP intensity (RFU): Sup. Fig. 15b
Description: (§1) HL-60 cells were differentiated to neutrophils as described above. Cells were counted and centrifuged (200g, 5 min), followed by resuspension in growth medium without antibiotics. Cells were incubated with vehicle or inhibitor (from 1000x concentrated stocks in DMSO) for 1 h at 37 °C prior to infection (1×10^6 cells in 900 µL in 12-well plate). Meanwhile, E. coli B834(DE3) constitutively expressing GFP^A206K were grown in LB medium to an OD600 of 0.4–1.0, after which bacteria were centrifuged (2000g, 5 min), washed and resuspended in PBS to appropriate density. Neutrophils were infected by addition of bacteria at multiplicity of infection (MOI) of 30 unless stated otherwise. Cells were then incubated for 1 h at 37 °C unless stated otherwise, after which cells were resuspended and transferred to Eppendorf tubes, washed in FACS buffer (1 mL, 500g, 3 min) and fixed in 1% PFA in PBS (15 min, 4 °C, in the dark). Samples were further processed as described above.
(§2) Events (generally 20,000 per condition) were gated by forward and side scatter (cells), side scatter area (singlets) and the percentage of GFP-positive cells and GFP mean fluorescence intensity (MFI) were determined based on background fluorescence for non-infected cells. The GREEN-B channel (525/30 filter) was used to detect GFP.

WT HL-60 neutrophils = test: Phagocytosis assay with GFP-expressing E. coli; type: cell-based, human; conditions: Figure 7e, replicates, listed as WEL028
Description: as §1, §2

ACVRL1 (ALK1) = ACVRL1 (ALK1) (Homo sapiens, UniProt P37023); test: SelectScreen kinase assay
Description: (§3) Selectivity profiling assays were performed by the Invitrogen SelectScreen™ Services. […] The concentration of ATP was selected to be equal to the KM, unless indicated otherwise.

ADRBK1 (GRK2) = target: T1, ADRBK1 (GRK2) (Homo sapiens, UniProt P25098); test: SelectScreen kinase assay; conditions: for Inhibition at 1 µM (%): ADRBK1 (GRK2), ZLYTE, ATP Km app
T1 sequence (P25098 1-689): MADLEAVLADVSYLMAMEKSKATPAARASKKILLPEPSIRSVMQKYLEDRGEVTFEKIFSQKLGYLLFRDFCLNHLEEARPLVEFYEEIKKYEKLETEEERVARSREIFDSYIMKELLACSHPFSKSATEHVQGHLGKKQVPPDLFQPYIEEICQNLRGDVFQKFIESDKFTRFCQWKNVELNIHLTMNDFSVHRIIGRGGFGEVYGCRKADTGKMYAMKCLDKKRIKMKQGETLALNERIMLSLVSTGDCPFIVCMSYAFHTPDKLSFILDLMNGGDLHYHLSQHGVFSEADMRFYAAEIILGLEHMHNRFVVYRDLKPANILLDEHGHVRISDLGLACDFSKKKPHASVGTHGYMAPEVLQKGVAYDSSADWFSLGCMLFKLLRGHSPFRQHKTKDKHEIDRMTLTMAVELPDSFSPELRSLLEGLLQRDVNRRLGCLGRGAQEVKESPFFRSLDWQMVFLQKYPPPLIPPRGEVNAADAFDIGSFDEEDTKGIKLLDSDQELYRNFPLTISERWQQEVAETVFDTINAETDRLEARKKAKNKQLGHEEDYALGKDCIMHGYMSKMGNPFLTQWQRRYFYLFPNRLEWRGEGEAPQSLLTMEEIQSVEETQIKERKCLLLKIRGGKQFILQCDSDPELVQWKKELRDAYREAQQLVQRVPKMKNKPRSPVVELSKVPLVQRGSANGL
Description: as §3

CDK14 (PFTK1)/cyclin Y = CDK14 (PFTK1)/cyclin Y (Homo sapiens, UniProt O94921); test: SelectScreen kinase assay
Description: as §3

CSNK2A2 (CK2 alpha 2) = CSNK2A2 (CK2 alpha 2) (Homo sapiens, UniProt P19784); test: SelectScreen kinase assay
Description: as §3

ERN2 = ERN2 (Homo sapiens, UniProt Q76MJ5); test: SelectScreen kinase assay
Description: as §3

HIPK3 (YAK1) = HIPK3 (YAK1) (Homo sapiens, UniProt Q9H422); test: SelectScreen kinase assay
Description: as §3

LCK = LCK (Homo sapiens, UniProt P06239); test: SelectScreen kinase assay
Description: as §3

LYN B = LYN B (Homo sapiens, UniProt P07948); test: SelectScreen kinase assay; conditions: for Inhibition at 1 µM (%): LYN B, ZLYTE, ATP Km app
Description: as §3

MAP4K5 (KHS1) = MAP4K5 (KHS1) (Homo sapiens, UniProt Q9Y4K4); test: SelectScreen kinase assay; conditions: 1 h, 1 μM WEL028, 1 h preincubation
Description: as §3

NLK = NLK (Homo sapiens, UniProt Q9UBE8); test: SelectScreen kinase assay
Description: as §3

STK38 (NDR) = STK38 (NDR) (Homo sapiens, UniProt Q15208); test: SelectScreen kinase assay; conditions: for Inhibition at 1 µM (%): LanthaScreen Binding
Description: as §3

TAOK1 = TAOK1 (Homo sapiens, UniProt Q7L7X3); test: SelectScreen kinase assay
Description: as §3

FES^S700C = FES^S700C (Homo sapiens, UniProt P07332, S700C); test: Time-dependent probe displacement by WEL033 in lysate
[2] = 1 h, 1 μM WEL028, 1 h preincubation
[3] = read-out: Inhibition at 1 µM (%)

LCK, sequence (P06239 whole entry): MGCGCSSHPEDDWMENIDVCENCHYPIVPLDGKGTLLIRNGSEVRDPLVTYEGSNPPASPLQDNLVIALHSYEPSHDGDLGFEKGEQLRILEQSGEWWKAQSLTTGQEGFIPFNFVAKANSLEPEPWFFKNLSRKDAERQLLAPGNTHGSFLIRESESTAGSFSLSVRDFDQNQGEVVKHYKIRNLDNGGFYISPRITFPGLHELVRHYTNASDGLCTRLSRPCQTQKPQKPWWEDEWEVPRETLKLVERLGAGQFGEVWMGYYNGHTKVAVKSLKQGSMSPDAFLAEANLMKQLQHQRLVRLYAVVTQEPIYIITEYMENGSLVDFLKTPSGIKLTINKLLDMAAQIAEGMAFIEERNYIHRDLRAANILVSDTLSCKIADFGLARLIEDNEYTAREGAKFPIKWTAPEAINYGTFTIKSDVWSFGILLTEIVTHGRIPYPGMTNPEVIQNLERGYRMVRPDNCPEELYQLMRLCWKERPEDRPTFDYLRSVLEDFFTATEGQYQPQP
STK38 (NDR), sequence (Q15208 whole entry): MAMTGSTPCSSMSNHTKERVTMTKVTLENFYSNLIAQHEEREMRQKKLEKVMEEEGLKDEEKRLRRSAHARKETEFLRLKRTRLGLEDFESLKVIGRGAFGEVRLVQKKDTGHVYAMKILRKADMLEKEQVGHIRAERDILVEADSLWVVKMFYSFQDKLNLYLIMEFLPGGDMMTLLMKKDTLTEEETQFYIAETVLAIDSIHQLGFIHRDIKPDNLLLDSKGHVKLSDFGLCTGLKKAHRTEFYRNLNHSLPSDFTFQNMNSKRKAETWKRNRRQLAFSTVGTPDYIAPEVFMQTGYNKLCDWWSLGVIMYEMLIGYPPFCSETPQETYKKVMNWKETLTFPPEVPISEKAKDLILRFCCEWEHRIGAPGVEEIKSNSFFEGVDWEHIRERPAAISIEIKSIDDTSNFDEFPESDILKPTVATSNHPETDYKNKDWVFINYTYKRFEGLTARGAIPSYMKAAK
LYN B, sequence (P07948 1-491 isoform P07948-2): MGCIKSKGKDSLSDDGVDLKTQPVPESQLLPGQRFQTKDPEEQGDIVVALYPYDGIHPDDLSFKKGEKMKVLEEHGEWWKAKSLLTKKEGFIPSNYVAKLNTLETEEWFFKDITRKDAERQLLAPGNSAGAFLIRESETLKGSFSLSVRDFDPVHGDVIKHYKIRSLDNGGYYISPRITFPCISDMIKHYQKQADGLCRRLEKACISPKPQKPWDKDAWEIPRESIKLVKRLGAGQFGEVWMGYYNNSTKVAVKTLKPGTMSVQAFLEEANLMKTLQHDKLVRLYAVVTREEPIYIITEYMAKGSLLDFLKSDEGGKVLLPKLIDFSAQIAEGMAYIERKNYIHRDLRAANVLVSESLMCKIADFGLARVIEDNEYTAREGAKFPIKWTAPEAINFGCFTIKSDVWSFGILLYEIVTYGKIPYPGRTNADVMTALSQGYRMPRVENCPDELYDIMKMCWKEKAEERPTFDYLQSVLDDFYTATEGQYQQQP
ACVRL1 (ALK1), sequence (P37023 22-503): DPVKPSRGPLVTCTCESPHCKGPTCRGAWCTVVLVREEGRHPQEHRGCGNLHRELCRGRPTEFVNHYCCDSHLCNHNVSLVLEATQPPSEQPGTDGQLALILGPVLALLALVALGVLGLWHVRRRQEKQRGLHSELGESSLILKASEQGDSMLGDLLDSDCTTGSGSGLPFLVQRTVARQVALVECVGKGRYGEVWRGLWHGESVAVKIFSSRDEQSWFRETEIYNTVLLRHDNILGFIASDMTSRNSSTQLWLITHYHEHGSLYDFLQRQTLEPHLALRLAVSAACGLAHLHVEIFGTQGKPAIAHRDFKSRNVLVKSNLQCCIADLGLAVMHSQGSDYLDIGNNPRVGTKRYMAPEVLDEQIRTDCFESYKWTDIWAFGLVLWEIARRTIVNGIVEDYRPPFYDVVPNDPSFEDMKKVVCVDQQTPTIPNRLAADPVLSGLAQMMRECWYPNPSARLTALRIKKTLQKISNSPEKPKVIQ
CSNK2A2 (CK2 alpha 2), sequence (P19784 whole entry): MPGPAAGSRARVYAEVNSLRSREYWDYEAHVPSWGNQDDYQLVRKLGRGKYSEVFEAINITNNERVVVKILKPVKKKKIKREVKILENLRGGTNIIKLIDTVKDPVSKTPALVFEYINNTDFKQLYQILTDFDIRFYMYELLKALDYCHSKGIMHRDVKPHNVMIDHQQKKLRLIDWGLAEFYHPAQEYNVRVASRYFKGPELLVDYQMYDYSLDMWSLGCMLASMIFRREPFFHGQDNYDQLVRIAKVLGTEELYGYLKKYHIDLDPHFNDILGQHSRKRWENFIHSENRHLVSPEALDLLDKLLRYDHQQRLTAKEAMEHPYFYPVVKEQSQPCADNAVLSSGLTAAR
HIPK3 (YAK1), sequence (Q9H422 whole entry): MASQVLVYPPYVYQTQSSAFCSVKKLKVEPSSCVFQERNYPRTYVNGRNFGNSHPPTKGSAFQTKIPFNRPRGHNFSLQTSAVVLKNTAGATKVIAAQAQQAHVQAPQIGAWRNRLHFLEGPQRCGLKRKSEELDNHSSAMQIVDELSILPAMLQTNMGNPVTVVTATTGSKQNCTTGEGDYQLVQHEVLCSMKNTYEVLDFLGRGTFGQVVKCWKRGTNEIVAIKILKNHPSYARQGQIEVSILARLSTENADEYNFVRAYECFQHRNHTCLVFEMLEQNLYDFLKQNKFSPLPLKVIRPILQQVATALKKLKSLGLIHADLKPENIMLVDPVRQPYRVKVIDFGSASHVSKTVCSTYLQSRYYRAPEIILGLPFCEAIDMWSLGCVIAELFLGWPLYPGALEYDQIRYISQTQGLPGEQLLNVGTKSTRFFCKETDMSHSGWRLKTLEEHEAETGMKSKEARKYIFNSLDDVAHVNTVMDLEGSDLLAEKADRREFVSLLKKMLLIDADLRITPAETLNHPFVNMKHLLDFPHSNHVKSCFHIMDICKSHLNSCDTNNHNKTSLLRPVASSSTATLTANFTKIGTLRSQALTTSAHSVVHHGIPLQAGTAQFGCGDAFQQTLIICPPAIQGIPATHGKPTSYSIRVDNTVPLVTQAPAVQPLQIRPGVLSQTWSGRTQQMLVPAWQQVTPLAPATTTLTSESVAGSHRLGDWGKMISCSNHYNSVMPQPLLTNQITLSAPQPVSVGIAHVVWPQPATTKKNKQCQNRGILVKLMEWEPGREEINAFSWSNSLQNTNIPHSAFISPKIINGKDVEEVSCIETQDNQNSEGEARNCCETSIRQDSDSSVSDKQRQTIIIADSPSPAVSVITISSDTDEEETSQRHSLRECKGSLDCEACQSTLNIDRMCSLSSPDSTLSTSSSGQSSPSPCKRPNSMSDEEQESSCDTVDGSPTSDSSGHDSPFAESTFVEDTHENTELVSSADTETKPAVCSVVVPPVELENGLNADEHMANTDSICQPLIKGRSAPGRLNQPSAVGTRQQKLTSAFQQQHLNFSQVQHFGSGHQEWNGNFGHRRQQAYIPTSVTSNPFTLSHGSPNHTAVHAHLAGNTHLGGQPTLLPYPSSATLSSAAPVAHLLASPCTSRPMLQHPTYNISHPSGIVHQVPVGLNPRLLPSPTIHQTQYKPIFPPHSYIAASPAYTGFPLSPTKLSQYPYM
TAOK1, sequence (Q7L7X3 whole entry): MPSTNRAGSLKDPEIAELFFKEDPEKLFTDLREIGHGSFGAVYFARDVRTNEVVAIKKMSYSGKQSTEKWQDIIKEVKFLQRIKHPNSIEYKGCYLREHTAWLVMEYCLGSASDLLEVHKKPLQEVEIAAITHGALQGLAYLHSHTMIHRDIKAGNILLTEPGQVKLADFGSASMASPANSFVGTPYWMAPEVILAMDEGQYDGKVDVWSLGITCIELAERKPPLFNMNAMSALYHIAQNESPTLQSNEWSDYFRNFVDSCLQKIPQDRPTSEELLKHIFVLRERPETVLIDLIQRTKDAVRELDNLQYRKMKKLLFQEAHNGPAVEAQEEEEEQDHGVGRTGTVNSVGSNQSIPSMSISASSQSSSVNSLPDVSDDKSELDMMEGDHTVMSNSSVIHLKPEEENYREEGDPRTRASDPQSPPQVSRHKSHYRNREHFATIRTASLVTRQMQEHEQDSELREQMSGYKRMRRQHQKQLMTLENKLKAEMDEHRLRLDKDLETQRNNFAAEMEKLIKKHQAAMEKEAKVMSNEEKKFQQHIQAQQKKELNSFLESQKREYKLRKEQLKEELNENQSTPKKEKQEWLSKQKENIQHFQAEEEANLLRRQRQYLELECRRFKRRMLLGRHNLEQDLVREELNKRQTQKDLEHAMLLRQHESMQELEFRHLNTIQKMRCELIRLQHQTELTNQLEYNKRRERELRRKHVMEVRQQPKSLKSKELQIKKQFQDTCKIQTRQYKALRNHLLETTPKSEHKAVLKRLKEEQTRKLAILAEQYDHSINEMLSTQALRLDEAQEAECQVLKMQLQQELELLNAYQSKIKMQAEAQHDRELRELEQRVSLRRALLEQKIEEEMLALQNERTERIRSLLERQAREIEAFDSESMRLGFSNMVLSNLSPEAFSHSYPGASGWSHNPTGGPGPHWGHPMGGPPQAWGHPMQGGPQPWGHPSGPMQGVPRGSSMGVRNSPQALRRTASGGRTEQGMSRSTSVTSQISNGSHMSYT
NLK, sequence (Q9UBE8 whole entry): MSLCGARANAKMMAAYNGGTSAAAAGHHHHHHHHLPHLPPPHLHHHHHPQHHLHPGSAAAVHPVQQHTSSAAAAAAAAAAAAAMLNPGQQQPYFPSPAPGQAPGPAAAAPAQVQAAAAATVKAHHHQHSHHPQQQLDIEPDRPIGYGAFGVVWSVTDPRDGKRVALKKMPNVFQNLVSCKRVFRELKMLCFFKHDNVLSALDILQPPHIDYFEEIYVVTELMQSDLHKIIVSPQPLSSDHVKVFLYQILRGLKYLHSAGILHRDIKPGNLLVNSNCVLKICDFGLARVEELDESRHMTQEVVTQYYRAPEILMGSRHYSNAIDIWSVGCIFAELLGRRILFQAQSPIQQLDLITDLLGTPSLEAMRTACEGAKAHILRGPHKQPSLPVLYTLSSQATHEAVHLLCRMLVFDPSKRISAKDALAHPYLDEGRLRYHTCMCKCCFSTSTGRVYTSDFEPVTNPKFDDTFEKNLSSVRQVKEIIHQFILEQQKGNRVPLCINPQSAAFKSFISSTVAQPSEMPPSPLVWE

Compound: C#CCOc1ccc(Nc2ncc(Cl)c(Nc3ccccc3NC(=O)C=C)n2)c(OC)c1 [Compound 6]
- Reduction of phagocytic index ([1]; 100 nM, 1 h, E. coli MOI 30, 1 h): 30–50%
- Phagocytic index ([1]; Figure 7e, S700C, replicates): 145.478 and 171.315 and 187.921 and 222.417 and 183.286
- Phagocytic index ([1]; Figure 7i, replicates): 197.442 and 178.118 and 223.309 and 208.369 and 195.015
- Phagocytic index ([1]; MOI 0, Sup. Fig. 15d): 11.3713 and 7.7474 and 12.7423
- Phagocytic index ([1]; MOI 5, Sup. Fig. 15d): 256.754 and 179.658 and 258.748
- Phagocytic index ([1]; MOI 10, Sup. Fig. 15d): 353.426 and 268.67 and 311.603
- Phagocytic index ([1]; MOI 30, Sup. Fig. 15d): 419.958 and 366.26 and 418.025
- Phagocytic index ([1]; MOI 50, Sup. Fig. 15d): 485.281 and 414.473 and 534.485
- GFP-positive cells (%) ([1]; infection time 0 min): 18.616% and 19.116% and 23.8538%
- Mean GFP intensity (RFU) ([1]; infection time 0 min): 251.299 RFU and 272.27 RFU and 265.594 RFU
- Phagocytic index ([1]; infection time 0 min, Sup. Fig. 15c): 46.7819 and 52.047 and 63.3542
- GFP-positive cells (%) ([1]; infection time 15 min): 35.6181% and 40.0295% and 44.0403%
- Mean GFP intensity (RFU) ([1]; infection time 15 min): 355.136 RFU and 341.544 RFU and 336.989 RFU
- Phagocytic index ([1]; infection time 15 min, Sup. Fig. 15c): 126.493 and 136.719 and 148.411
- GFP-positive cells (%) ([1]; infection time 30 min): 53.551% and 63.4482% and 62.11%
- Mean GFP intensity (RFU) ([1]; infection time 30 min): 496.403 RFU and 400.363 RFU and 431.37 RFU
- Phagocytic index ([1]; infection time 30 min, Sup. Fig. 15c): 265.829 and 254.023 and 267.924
- GFP-positive cells (%) ([1]; infection time 60 min): 64.7116% and 74.5174% and 69.3761%
- Mean GFP intensity (RFU) ([1]; infection time 60 min): 571.855 RFU and 482.086 RFU and 578.862 RFU
- Phagocytic index ([1]; infection time 60 min, Sup. Fig. 15c): 370.057 and 359.238 and 401.592
- Phagocytic index (WT HL-60 neutrophils): 160.957 and 207.068 and 250.511 and 251.311 and 284.865
- inhibition at 1 µM (ACVRL1 (ALK1); [2]): 6%
- Inhibition at 1 µM (%) (ACVRL1 (ALK1); ACVRL1 (ALK1), 1 µM, LanthaScreen Binding): 12%
- inhibition at 1 µM (ADRBK1 (GRK2); [2]): 4%
- Inhibition at 1 µM (%) (ADRBK1 (GRK2)): 2%
- Inhibition at 1 µM (%) (ADRBK1 (GRK2); listed as WEL028, 1 µM): 6%
- Inhibition (%) (CDK14 (PFTK1)/cyclin Y; 1 μM WEL028, 1 h preincubation): -7%
- Inhibition at 1 µM (%) (CDK14 (PFTK1)/cyclin Y; CDK14 (PFTK1)/cyclin Y, 1 µM, LanthaScreen Binding): -14%
- inhibition at 1 µM (CSNK2A2 (CK2 alpha 2); 1 h): 6%
- inhibition at 1 µM (CSNK2A2 (CK2 alpha 2); [3]): 6%
- inhibition at 1 µM (ERN2; 1 h): -1%
- inhibition at 1 µM (ERN2; [3]): -1%
- inhibition at 1 µM (HIPK3 (YAK1); [2]): -3%
- Inhibition at 1 µM (%) (HIPK3 (YAK1); HIPK3 (YAK1), 1 µM, ZLYTE, ATP Km app): -11%
- inhibition at 1 µM (LCK; [2]): 5%
- Inhibition at 1 µM (%) (LCK; LCK, 1 µM, ZLYTE, ATP Km app, listed as WEL028, 1 µM): 6%
- inhibition at 1 µM (LCK; read-out: Inhibition at 1 µM (%), LCK, 1 µM, ZLYTE, ATP Km app): 4%
- inhibition at 1 µM (LYN B; [2]): 1%
- Inhibition at 1 µM (%) (LYN B): 3%
- Inhibition at 1 µM (%) (LYN B; listed as WEL028, 1 µM): 0%
- inhibition at 1 µM (MAP4K5 (KHS1)): -5%
- inhibition at 1 µM (NLK; [2]): 3%
- inhibition at 1 µM (NLK; read-out: Inhibition at 1 µM (%), NLK, 1 µM, LanthaScreen Binding): 4%
- Inhibition at 1 µM (%) (STK38 (NDR)): 2%
- Inhibition at 1 µM (%) (STK38 (NDR); listed as WEL028, 1 µM): 6%
- inhibition at 1 µM (STK38 (NDR); [2]): 4%
- inhibition at 1 µM (TAOK1; [2]): 23%
- inhibition at 1 µM (TAOK1; read-out: Inhibition at 1 µM (%), 1 µM, LanthaScreen Binding): 24%
- IC80 (FES^S700C; read-out: IC80-concentration (20% remaining activity)): 27 nM
- Mode of action (FES^S700C; recovery of WEL033 labeling after inhibitor at IC80): irreversible

Source: article PMC7316778 (Nature Communications, 2020)
